Laboratory results taken from EP4603105A1, “PHARMACEUTICAL COMPOSITION CONTAINING CYCLIC COMPOUND HAVING SELECTIVE KRAS INHIBITORY EFFECT AGAINST HRAS AND NRAS” (CHUGAI SEIYAKU KABUSHIKI KAISHA, priority 2022, dated 2024).
pIC50: −log10 of the molar value. Where a SMILES comes first, the peptide text is derived from it. Bridges are numbered along the chain shown (N, C = ends). [ ]: non-standard residue; d: D form. The star is where a group is joined. hPhe(3-Cl-4-CF3) = N[C@@H](CCc1ccc(C(F)(F)F)c(Cl)c1)C(=O)O; NPrPhe(4-CF3) = CCCN[C@@H](Cc1ccc(C(F)(F)F)cc1)C(=O)O; NMeGly(cPent) = CN[C@H](C(=O)O)C1CCCC1; Pro(4,4-F2) = O=C(O)[C@@H]1CC(F)(F)CN1; NMeL = CN[C@@H](CC(C)C)C(=O)O; Morpholide = C1CN(*)CCO1; Ac5c = NC1(C(=O)O)CCCC1; Aze = O=C(O)[C@@H]1CCN1; Sar = CNCC(=O)O

Legend:
[1] = test system: human lung cancer strain NCI-H441; assay type: cell-based
How it was run: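 Signal came from […] measured per well once the reagent was added. Beforehand, cells were cultured at 37°C and 5% carbon dioxide on a compound series serially diluted in dimethyl sulfoxide.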

HRAS wild-type protein = HRAS wild-type protein (Homo sapiens, UniProt P01112); assay: Binding to HRAS by surface plasmon resonance (SPR), KD and KD ratio to KRAS
Sequence of HRAS wild-type protein (P01112 whole entry): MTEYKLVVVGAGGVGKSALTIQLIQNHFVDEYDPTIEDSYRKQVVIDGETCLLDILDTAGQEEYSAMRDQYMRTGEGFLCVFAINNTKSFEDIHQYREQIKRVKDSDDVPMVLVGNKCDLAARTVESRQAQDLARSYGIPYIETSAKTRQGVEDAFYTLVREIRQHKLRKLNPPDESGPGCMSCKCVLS
How it was run: (§1)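 Each cycle, GDP-bound biotin-Avi RAS was captured (~100–300 RU), compound concentrations were injected low to high for 75 s each at 100 µL/min, then the chip was regenerated. Buffer: HBS pH 7.4, 10 mM MgCl2, 10 µM GDP, 1 mM DTT, 4% DMSO; 30°C. KD from a 1:1 binding model.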

[2] = target: GDP-bound NRAS wild-type protein (Homo sapiens, UniProt P01111); assay: Binding to NRAS by surface plasmon resonance (SPR), KD and KD ratio to KRAS
Sequence of GDP-bound NRAS wild-type protein (P01111 whole entry): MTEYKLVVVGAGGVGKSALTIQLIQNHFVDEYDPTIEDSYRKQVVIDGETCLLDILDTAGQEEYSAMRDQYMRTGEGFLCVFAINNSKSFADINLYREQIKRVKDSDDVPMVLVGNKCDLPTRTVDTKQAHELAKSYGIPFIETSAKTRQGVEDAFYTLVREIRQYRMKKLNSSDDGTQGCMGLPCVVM
How it was run: as §1

[3] = ratio of KD for HRAS wild-type protein to KD for KRAS
[4] = ratio of KD for GDP-bound NRAS wild-type protein to KD for KRAS
[5] = ratio of the KD value with respect to HRAS wild-type protein to the KD value with respect to KRAS
[6] = ratio of the KD value with respect to GDP-bound NRAS wild-type protein to the KD value with respect to KRAS

pIC50 [1] | SMILES | HRAS /KRAS (HRAS wild-type protein; [5]) | NRAS /KRAS [2, 6] | further results
7.33 | CC[C@H](C)[C@@H]1NC(=O)[C@H](COC)N(C)C(=O)C[C@@H](C(=O)N(C)C)N(C)C(=O)[C@H](C2CCCC2)N(C)C(=O)C2(CC(C)(C)C2)NC(=O)[C@@H]2CCCCN2C(=O)[C@H](CCc2cc(F)c(C(F)(F)F)c(F)c2)NC(=O)CN(C)C(=O)[C@H](Cc2ccc(C(F)(F)F)cc2)N2CC/C=C\C[C@@H](C2=O)N(C)C(=O)CN(C)C1=O [PP2907] | – | – | HRAS /KRAS (HRAS wild-type protein; [3]): A (a compound having 10 or more and less than 20 is denoted as A); NRAS /KRAS [2, 4]: AA (a compound having 20 or more is denoted as AA)
8.28 | CC[C@H](C)[C@@H]1NC(=O)[C@H](CC(C)C)N(C)C(=O)C[C@@H](C(=O)N(C)C)N(C)C(=O)[C@H](C2CCCC2)N(C)C(=O)C2(CCC2)NC(=O)[C@@H]2C[C@@H](C)CN2C(=O)[C@H](CCc2ccc(C(F)(F)F)c(Cl)c2)NC(=O)CN(C)C(=O)[C@H](Cc2ccc(C)cc2)N2CC/C=C\C[C@@H](C2=O)N(C)C(=O)CN(C)C1=O [PP1854] | – | – | HRAS /KRAS (HRAS wild-type protein; ratio of KD value for HRAS wild-type protein to KD value for KRAS (SPR)): A (a compound having 10 or more and less than 20 is denoted as A); NRAS /KRAS ([2]; ratio of KD value for GDP-bound NRAS wild-type protein to KD value for KRAS (SPR)): A (a compound having 10 or more and less than 20 is denoted as A)
7.86 | CCC[C@H]1C(=O)N[C@@H]([C@@H](C)CC)C(=O)N(C)CC(=O)N(C)[C@H]2C/C=C\CCN(C2=O)[C@@H](Cc2ccc(C(F)(F)F)cc2)C(=O)N(C)CC(=O)N[C@@H](CCc2cc(F)c(C(F)(F)F)c(F)c2)C(=O)N2C[C@H](OCC)C[C@H]2C(=O)NC2(CCC2)C(=O)N(C)[C@@H](C2CCCC2)C(=O)N(C)[C@H](C(=O)N(C)CCOC)CC(=O)N1C [PP1331] | – | – | HRAS /KRAS (HRAS wild-type protein; ratio of KD with respect to HRAS wild-type protein to KD with respect to KRAS): A (a compound having 10 or more and less than 20 is denoted as A); NRAS /KRAS ([2]; ratio of KD with respect to GDP-bound NRAS wild-type protein to KD with respect to KRAS): A (a compound having 10 or more and less than 20 is denoted as A)
7.41 | CCCN1C(=O)[C@@H]2CCN2C(=O)CN(C)C(=O)[C@H]([C@@H](C)CC)NC(=O)[C@H](CC(C)C)N(C)C(=O)C[C@@H](C(=O)N2CCOCC2)NC(=O)[C@H](C2CCCC2)N(C)C(=O)C2(CCCC2)NC(=O)[C@@H]2CC(F)(F)CN2C(=O)[C@H](CCc2ccc(C(F)(F)F)c(Cl)c2)NC(=O)CN(C)C(=O)[C@@H]1Cc1ccc(C(F)(F)F)cc1 [PP0351] ([NMeL]I[Sar][Aze][NPrPhe(4-CF3)][Sar][hPhe(3-Cl-4-CF3)][Pro(4,4-F2)][Ac5c][NMeGly(cPent)]D-Morpholide; lactam N-11) | – | – | HRAS /KRAS (HRAS wild-type protein; [3]): B (a compound having 3 or more and less than 10 is denoted as B); NRAS /KRAS [2, 4]: C (A compound having a KD ratio of 0.1 or more and less than 3 is denoted as C)

Further lines, the compound ahead of its results:

SMILES | pIC50 [1] | HRAS /KRAS (HRAS wild-type protein; [5]) | NRAS /KRAS [2, 6] | further results
CCO[C@@H]1C[C@H]2C(=O)NC3(CC(C)(C)C3)C(=O)N(C)[C@@H](C(CC)CC)C(=O)N(C)[C@H](C(=O)N(C)C)CC(=O)N(C)[C@@H](CC3CC3)C(=O)N[C@@H]([C@@H](C)CC)C(=O)N(C)CC(=O)N(C)[C@H]3C/C=C\CCN(C3=O)[C@@H](Cc3ccc(C)cc3)C(=O)N(C)CC(=O)N[C@@H](CCc3ccc(C(F)(F)F)c(OC)c3)C(=O)N2C1 [PP2166] | 7.63 | A (a compound having 10 or more and less than 20 is denoted as A) | A (a compound having 10 or more and less than 20 is denoted as A) | –
C#CCN1CC(=O)N(C)[C@H]2C/C=C\CCN(C2=O)[C@@H](Cc2ccc(C(F)(F)F)cc2)C(=O)N(C)CC(=O)N[C@@H](CCc2cc(F)c(C(F)(F)F)c(F)c2)C(=O)N2C[C@H](OCC)C[C@H]2C(=O)NC2(CC(C)(C)C2)C(=O)N(C)[C@@H](C2CCCC2)C(=O)N(C)[C@H](C(=O)N(C)C)CC(=O)N(C)[C@@H](CC)C(=O)N[C@@H]([C@@H](C)CC)C1=O [PP2087] | 8.32 | A (a compound having 10 or more and less than 20 is denoted as A) | A (a compound having 10 or more and less than 20 is denoted as A) | –
CCO[C@@H]1C[C@H]2C(=O)NC3(CC(C)(C)C3)C(=O)N(C)[C@@H](C(CC)CC)C(=O)N(C)[C@H](C(=O)N(C)C)CC(=O)N(C)[C@@H](CC)C(=O)N[C@@H]([C@@H](C)CC)C(=O)N(C)CC(=O)N(C)[C@H]3C/C=C\CCN(C3=O)[C@@H](Cc3ccc(C(F)(F)F)cc3)C(=O)N(C)CC(=O)N[C@@H](CCc3cc(F)c(C(F)(F)F)c(F)c3)C(=O)N2C1 [PP2062] | 7.86 | A (a compound having 10 or more and less than 20 is denoted as A) | AA (a compound having 20 or more is denoted as AA) | –
